Results as given in PMC5253357, “Racemic Salsolinol and its Enantiomers Act as Agonists of the μ-Opioid Receptor by Activating the Gi Protein-Adenylate Cyclase Pathway” (Frontiers in Behavioral Neuroscience, 2017).
“Also recorded” adds a separate entry of the source.

Legend:
μ-opioid receptor = molecular target: μ-opioid receptor; design: method as in Lucchi et al., 1982; settings: rat striatum; ref Lucchi et al., 1982; read-out: IC50, displacement of [met]-enkephalin; cited from earlier work
human μ-opioid receptor [1] = molecular target: T1, human μ-opioid receptor (Homo sapiens, UniProt P35372); type: cell-based; settings: all tested concentrations; listed as racemic SAL
T1 construct: host or cells: CHO-K1
Source text: To assess the activation of the μ-opioid receptor through the recruitment of the β-arrestin signaling pathway, we used a PathHunter® eXpress β-Arrestin GPCR chemiluminescent assay (DiscoverX) following the manufacturer instructions. In this system, the human μ-opioid receptor is fused to a small fragment of β-galactosidase (PK) and co-expressed in cells expressing a fusion protein of β-arrestin and the complementary fragment of β-galactosidase (EA). Activation of the μ-opioid receptor stimulates binding of β-arrestin to the PK-tagged receptor allowing the complementation of the two enzyme fragments of β-galactosidase. This action leads to an activation of the enzyme that can be measured using a chemiluminescent reagent resulting in luminescence, which is proportional to the recruitment of β-arrestin. […] The resulting luminescence was determined with a microplate reader Synergy HT (Biotek).
(§1) The fitting of the data to the correlation was assessed by its corresponding coefficient of determination (R^2), using GraphPad Prism (San Diego, CA, USA).

human μ-opioid receptor [2] = molecular target: T1, human μ-opioid receptor; assay: cell-based; settings: CHO-K1 cells, forskolin 20 μM, 30 min incubation; read-out: EC50, activation of μ-opioid receptor (reduction of intracellular cAMP)
Source text: The intrinsic activity of the ligands was studied using commercially cell-based assays, composed by recombinant CHO-K1 cells that overexpress only the human μ-opioid receptor, detecting the levels of second messengers that reflect the activation of this receptor. To assess the activation of the μ-opioid receptor through the recruitment of G protein signaling pathway, we used the cyclic adenosine monophosphate (cAMP) Hunter® eXpress G protein-coupled receptor (GPCR) Assay (DiscoverX, Freemont, CA, USA) following the manufacturer instructions. In this system, the endogenous cAMP competes with an exogenous cAMP coupled to a truncated β-galactosidase fragment (provided by the assay) for binding to a cAMP antibody. Only the unbound exogenous cAMP-β-galactosidase fragment binds to a complementary β-galactosidase fragment to form the active enzyme. […] Control cells were incubated only with forskolin. The resulting luminescence was measured with a microplate reader Synergy HT (Biotek, Winooski, VT, USA) or a microplate reader SpectraMax M3 (Molecular Devices, Sunnyvale, CA, USA).
as §1

T1 sequence (P35372 whole entry): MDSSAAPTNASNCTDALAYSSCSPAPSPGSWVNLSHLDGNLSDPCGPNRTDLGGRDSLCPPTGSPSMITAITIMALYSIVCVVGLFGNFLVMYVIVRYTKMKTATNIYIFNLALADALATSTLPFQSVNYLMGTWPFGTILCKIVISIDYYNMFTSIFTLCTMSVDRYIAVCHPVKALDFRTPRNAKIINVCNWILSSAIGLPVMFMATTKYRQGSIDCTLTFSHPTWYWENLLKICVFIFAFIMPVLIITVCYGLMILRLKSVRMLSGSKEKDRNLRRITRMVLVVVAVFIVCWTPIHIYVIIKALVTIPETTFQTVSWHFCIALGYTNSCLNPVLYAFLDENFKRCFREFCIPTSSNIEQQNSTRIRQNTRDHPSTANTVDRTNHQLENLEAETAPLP

Row | SMILES | IC50 (μ-opioid receptor) | Activation of β-arrestin signaling pathway (in words) (human μ-opioid receptor [1]) | EC50 (human μ-opioid receptor [2])
1 | CC1NCCc2cc(O)c(O)cc21 (racemic) [(R/S)-SAL, 1-methyl-1,2,3,4-tetrahydro-6,7-dihydroxy-isoquinoline] | 10 µM | did not promote the recruitment of β-arrestin; also recorded: unable to activate the β-arrestin signaling pathway; also recorded: does not induce the recruitment of β-arrestin | 20 µM
2 | C[C@H]1NCCc2cc(O)c(O)cc21 [(R)-SAL] |  |  | 600 µM
3 | C[C@@H]1NCCc2cc(O)c(O)cc21 [(S)-SAL] |  |  | 9 µM
